Experimental data published in patent US20090247579A1, “2-[3H-THIAZOL-2-YLIDINEMETHYL]PYRIDINES AND RELATED COMPOUNDS AND THEIR USE” (CANCER RESEARCH TECHNOLOGY LIMITED, priority 2006, published 2009).

Experiments:
[1] = test system: HCT116 human colon tumour cell line grown as xenograft; test: Xenograft study, HCT116 in nude mice; type: in vivo; conditions: single bolus day 0, MMR201 1 or 2 mg/kg i.v. (tolerated doses), cisplatin 6 mg/kg i.p. (maximum tolerated dose)
Procedure: (§1) For xenograft experiments, tumour cells were injected into the flanks of athymic nude mice and allowed to establish until palpable tumour could be detected. Following single bolus injection of drug, tumour growth was monitored using calliper measurement of tumour size and calculation of tumour volume.
(§2) Cells in exponential phase of growth were harvested with trypsin and re-suspended in phosphate buffered saline. About 10^7 cells in a total volume of 200 μL of PBS were injected subcutaneously in the right flank of CD1 nude mice. They were used for experiments after about 7 to 10 days by which time the mean tumour diameter was about 0.5 cm.
(§3) Mice were weighed and tumour volumes measured. The mice were randomised in groups of 6 and treated either with the drug or with the solvent alone. The drug was dissolved in DMSO and diluted in sterile PBS just before injection to give a final DMSO concentration of 1%. The drugs solution was prepared such that the injection volume was 5 μL per gram body weight. […]
(§4) Mice were then weighed daily and tumour volumes estimated from two measurements of the diameter taken at a 90° angle. The volume was determined by the formula: v=D^3/6×π, where v=volume and D is the mean diameter. Results (Mean and SEM) are expressed as the relative tumour volume, which is the tumour volume on any given day divided by the initial tumour volume calculated for each mouse.

[2] = test system: PARP cleavage; test: Apoptosis as determined by PARP cleavage; type: cell-based
[3] = test system: LOVO (MSH2); test: Modified MTT assay, colon panel LOVO; type: cell-based; conditions: Homo sapiens, MMR deficient, p53 wt, read-out: MMR201 IC50
Procedure: (§5) Relative drug sensitivities (Resistance Factor) and IC50 values were determined by a modified MTT assay (see, e.g., Mosmann, 1983; Plumb et al., 1989), as described below: • (1) Trypsinise a sub-confluent monolayer culture and collect cells in growth medium containing serum. Centrifuge the suspension (200 g, 5 minutes) to pellet cells, re-suspend in growth medium, and count cells. Dilute cells to a density of 5×10^3 cells/mL allowing 60 mL of cell suspension for 3 microtitre plates. Transfer cell suspension to a 10 cm petri dish, and with a multichannel pipette add 200 μL to each well of the central 10 columns of a flat bottomed 96-well plate (80 wells per plate) starting with column 2 and ending with column 11. Add 200 μL of growth medium to the 8 wells in columns 1 and 12. […] Pipette 6 mL of growth medium in to each of 7 universal containers (30 mL). Prepare 10 mL of the highest concentration of the drug and transfer 1.5 mL of this solution to the first universal container. Mix and then transfer 1.5 mL to the next universal container. Continue until the seventh universal container is reached. The concentrations should be chosen so that the highest concentration kills most of the cells and the lowest kills none of the cells.

[4] = test system: p53; test: Induction of p53 expression; type: cell-based; conditions: at doses that were shown to induce apoptosis
[5] = test system: CACO2; test: Modified MTT assay, colon panel CACO2; type: cell-based; conditions: Homo sapiens, Caco-2, MMR proficient, p53 mut, read-out: MMR201 IC50
Procedure: as §5

[6] = test system: A2780/cp70 human ovarian, cisplatin resistant, cell line grown as xenograft; test: Xenograft study, A2780/cp70 in nude mice; type: in vivo; conditions: single bolus day 0, MMR201 1 mg/kg i.v. (tolerated dose), cisplatin 6 mg/kg i.p. (maximum tolerated dose)
Procedure: as §1, §2, §3, §4

CC[n+]1c(/C=C2\Sc3oc4ccccc4c3N2C)ccc2cc(C)ccc21.[I-] [MMR201]
Tumour growth (relative tumour volume) of HCT116 xenograft [1]: inhibits growth
Apoptosis in MLH1 negative cells ([2]; MLH1 negative cells, PARP cleavage, 24 hours): increased apoptosis at lower drug concentrations
Apoptosis as determined by PARP cleavage ([2]; incubation for 24 hours): induces apoptosis
IC50 [3]: 431 ± 11.2 nM
Induction of p53 expression [4]: does not induce expression of p53
IC50 [5]: 474 ± 16 nM
Tumour growth (relative tumour volume) of A2780/cp70 xenograft [6]: can inhibit growth
